What was measured:
Rattus norvegicus [1] = assay: Distribution of radioactivity was determined in spleen at 30 min after intravenous administration of 1,3-Disubstituted Triacylglycerols in rats; assay type: ADME, organism-based; settings: in vivo, 0.5 h
Rattus norvegicus [2] = assay: Distribution of radioactivity was determined in thyroid at 30 min after intravenous administration of [125I]-labeled 2-oleoglycerol 1,3-Bis-[omega-(3-amino-2,4,6-triiodophenyl)alkanoates] in rats; assay type: ADME, organism-based, Thyroid gland; settings: in vivo, 0.5 h
Rattus norvegicus [3] = assay: Analysis of lipid-soluble radioactivity in liver 24 hour after iv administration of [125I]-labeled 2-Oleoyl 1,3-disubstituted Triacylglycerols expressed as %parent compound (by TLC with authentic [125I]-labeled standard) from rat; assay type: ADME, organism-based; settings: in vivo
Rattus norvegicus [4] = assay: Distribution of radioactivity was determined in heart at 30 min after intravenous administration of [125I]-labeled 2-oleoglycerol 1,3-Bis-[omega-(3-amino-2,4,6-triiodophenyl)alkanoates] in rats; assay type: ADME, organism-based; settings: in vivo, 0.5 h
Rattus norvegicus [5] = assay: Analysis of lipid-soluble radioactivity in liver 0.5 hour after iv administration of [125I]-labeled 2-Oleoyl 1,3-disubstituted Triacylglycerols and represented as % CHCl3/CH3OH from rat; assay type: ADME, organism-based; settings: in vivo
Rattus norvegicus [6] = assay: Distribution of radioactivity was determined in lung at 30 min after intravenous administration of [125I]-labeled 2-oleoglycerol 1,3-Bis-[omega-(3-amino-2,4,6-triiodophenyl)alkanoates] in rats; assay type: ADME, organism-based; settings: in vivo, 0.5 h
Rattus norvegicus [7] = assay: Distribution of radioactivity was determined in blood at 3h after intravenous administration of [125I]-labeled 2-oleoglycerol 1,3-Bis-[omega-(3-amino-2,4,6-triiodophenyl)alkanoates] in rats; assay type: ADME, organism-based; settings: in vivo
Rattus norvegicus [8] = assay: Distribution of radioactivity was determined in plasma at 30 min after intravenous administration of [125I]-labeled 2-oleoglycerol 1,3-Bis-[omega-(3-amino-2,4,6-triiodophenyl)alkanoates] in rats; assay type: ADME, organism-based; settings: in vivo, 0.5 h
Rattus norvegicus [9] = assay: Distribution of radioactivity was determined in liver at 30 min after intravenous administration of 1,3-Disubstituted Triacylglycerols in rats; assay type: ADME, organism-based; settings: in vivo, 0.5 h
Rattus norvegicus [10] = assay: Distribution of radioactivity was determined in heart at 24 after intravenous administration of [125I]-labeled 2-oleoglycerol 1,3-Bis-[omega-(3-amino-2,4,6-triiodophenyl)alkanoates] in rats; assay type: ADME, organism-based; settings: in vivo
Rattus norvegicus [11] = assay: Distribution of radioactivity was determined in blood at 3h after intravenous administration of 1,3-Disubstituted Triacylglycerols in rats; assay type: ADME, organism-based; settings: in vivo
Rattus norvegicus [12] = assay: Distribution of radioactivity was determined in kidney at 30 min after intravenous administration of [125I]-labeled 2-oleoglycerol 1,3-Bis-[omega-(3-amino-2,4,6-triiodophenyl)alkanoates] in rats; assay type: ADME, organism-based; settings: in vivo, 0.5 h
Rattus norvegicus [13] = assay: Distribution of radioactivity was determined in spleen at 30 min after intravenous administration of [125I]-labeled 2-oleoglycerol 1,3-Bis-[omega-(3-amino-2,4,6-triiodophenyl)alkanoates] in rats; assay type: ADME, organism-based; settings: in vivo, 0.5 h
Rattus norvegicus [14] = assay: Distribution of radioactivity was determined in thyroid at 3h after intravenous administration of [125I]-labeled 2-oleoglycerol 1,3-Bis-[omega-(3-amino-2,4,6-triiodophenyl)alkanoates] in rats; assay type: ADME, organism-based, Thyroid gland; settings: in vivo
Rattus norvegicus [15] = assay: Distribution of radioactivity was determined in spleen at 24 hr after intravenous administration of 1,3-Disubstituted Triacylglycerols in rats; assay type: ADME, organism-based; settings: in vivo
Rattus norvegicus [16] = assay: Distribution of radioactivity was determined in kidney at 24 hr after intravenous administration of [125I]-labeled 2-oleoglycerol 1,3-Bis-[omega-(3-amino-2,4,6-triiodophenyl)alkanoates] in rats; assay type: ADME, organism-based; settings: in vivo
Rattus norvegicus [17] = assay: Polyacrylamide Gel Electrophoresis (PAGE) to determined the concentration of stacking gel(SG) in rats after iv administration of [125I]-labeled 2-Oleolyl 1,3-disubstituted triglycerols was reported; assay type: ADME, organism-based; settings: in vivo
Rattus norvegicus [18] = assay: Distribution of radioactivity was determined in heart at 3h after intravenous administration of [125I]-labeled 2-oleoglycerol 1,3-Bis-[omega-(3-amino-2,4,6-triiodophenyl)alkanoates] in rats; assay type: ADME, organism-based; settings: in vivo
Rattus norvegicus [19] = assay: Distribution of radioactivity was determined in blood at 30 min after intravenous administration of [125I]-labeled 2-oleoglycerol 1,3-Bis-[omega-(3-amino-2,4,6-triiodophenyl)alkanoates] in rats; assay type: ADME, organism-based; settings: in vivo, 0.5 h
Rattus norvegicus [20] = assay: Distribution of radioactivity was determined in blood at 48 hr after intravenous administration of 1,3-Disubstituted Triacylglycerols in rats; assay type: ADME, organism-based; settings: in vivo
Rattus norvegicus [21] = assay: Distribution of radioactivity was determined in spleen at 48 hr after intravenous administration of 1,3-Disubstituted Triacylglycerols in rats; assay type: ADME, organism-based; settings: in vivo
Rattus norvegicus [22] = assay: Distribution of radioactivity was determined in blood at 24 hr after intravenous administration of 1,3-Disubstituted Triacylglycerols in rats; assay type: ADME, organism-based; settings: in vivo
Rattus norvegicus [23] = assay: Distribution of radioactivity was determined in spleen at 3h after intravenous administration of 1,3-Disubstituted Triacylglycerols in rats; assay type: ADME, organism-based; settings: in vivo
Rattus norvegicus [24] = assay: Analysis of lipid-soluble radioactivity in liver 24 hour after iv administration of [125I]-labeled 2-Oleoyl 1,3-disubstituted Triacylglycerols and represented as % CHCl3/CH3OH from rat; assay type: ADME, organism-based; settings: in vivo
Rattus norvegicus [25] = assay: Distribution of radioactivity was determined in blood at 24 hr after intravenous administration of [125I]-labeled 2-oleoglycerol 1,3-Bis-[omega-(3-amino-2,4,6-triiodophenyl)alkanoates] in rats; assay type: ADME, organism-based; settings: in vivo
Rattus norvegicus [26] = assay: Polyacrylamide Gel Electrophoresis (PAGE) to determined the concentration of albumin(ALB) in rats after iv administration of [125I]-labeled 2-Oleolyl 1,3-disubstituted triglycerols was reported; assay type: ADME, organism-based; settings: in vivo
Rattus norvegicus [27] = assay: Polyacrylamide Gel Electrophoresis (PAGE) to determined the concentration of low density lipoprotein (LDL) in rats after iv administration of [125I]-labeled 2-Oleolyl 1,3-disubstituted triglycerols was reported; assay type: ADME, organism-based; settings: in vivo
Rattus norvegicus [28] = assay: Distribution of radioactivity was determined in liver at 48 hr after intravenous administration of 1,3-Disubstituted Triacylglycerols in rats; assay type: ADME, organism-based; settings: in vivo
Rattus norvegicus [29] = assay: Distribution of radioactivity was determined in liver at 3h after intravenous administration of [125I]-labeled 2-oleoglycerol 1,3-Bis-[omega-(3-amino-2,4,6-triiodophenyl)alkanoates] in rats; assay type: ADME, organism-based; settings: in vivo
Rattus norvegicus [30] = assay: Distribution of radioactivity was determined in lung at 24 hr after intravenous administration of [125I]-labeled 2-oleoglycerol 1,3-Bis-[omega-(3-amino-2,4,6-triiodophenyl)alkanoates] in rats; assay type: ADME, organism-based; settings: in vivo
Rattus norvegicus [31] = assay: Distribution of radioactivity was determined in spleen at 3h after intravenous administration of [125I]-labeled 2-oleoglycerol 1,3-Bis-[omega-(3-amino-2,4,6-triiodophenyl)alkanoates] in rats; assay type: ADME, organism-based; settings: in vivo
Rattus norvegicus [32] = assay: Polyacrylamide Gel Electrophoresis (PAGE) to determined the concentration of below albumin(BA) in rats after iv administration of [125I]-labeled 2-Oleolyl 1,3-disubstituted triglycerols was reported; assay type: ADME, organism-based; settings: in vivo
Rattus norvegicus [33] = assay: Analysis of lipid-soluble radioactivity in plasma 24 hour after iv administration of [125I]-labeled 2-Oleoyl 1,3-disubstituted Triacylglycerols and represented as % CHCl3/CH3OH from rat; assay type: ADME, organism-based; settings: in vivo
Rattus norvegicus [34] = assay: Analysis of lipid-soluble radioactivity in plasma 0.5 hour after iv administration of [125I]-labeled 2-Oleoyl 1,3-disubstituted Triacylglycerols expressed as %parent compound (by TLC with authentic [125I]-labeled standard) from rat; assay type: ADME, organism-based; settings: in vivo
Rattus norvegicus [35] = assay: Distribution of radioactivity was determined in kidney at 3h after intravenous administration of [125I]-labeled 2-oleoglycerol 1,3-Bis-[omega-(3-amino-2,4,6-triiodophenyl)alkanoates] in rats; assay type: ADME, organism-based; settings: in vivo

Distribution of radioactivity (Rattus norvegicus [1]) [% dose/organ] | Distribution of radioactivity (Rattus norvegicus [2]) [% dose/g] | Lipid-soluble radioactivity (Rattus norvegicus [3]) | Distribution of radioactivity (Rattus norvegicus [4]) [% dose/g] | Lipid-soluble radioactivity (Rattus norvegicus [5]) | Distribution of radioactivity (Rattus norvegicus [6]) [% dose/g] | Distribution of radioactivity (Rattus norvegicus [7]) [% dose/g] | Distribution of radioactivity (Rattus norvegicus [8]) [% dose/g] | Radioactivity per organ (Rattus norvegicus [9]) [% dose/organ] | Distribution of radioactivity (Rattus norvegicus [10]) [% dose/g] | Distribution of radioactivity (Rattus norvegicus [11]) [% dose/organ] | Distribution of radioactivity (Rattus norvegicus [12]) [% dose/g] | Distribution of radioactivity (Rattus norvegicus [13]) [% dose/g] | Distribution of radioactivity (Rattus norvegicus [14]) [% dose/g] | Distribution of radioactivity (Rattus norvegicus [15]) [% dose/organ] | Distribution of radioactivity (Rattus norvegicus [16]) [% dose/g] | Radioactivity (Rattus norvegicus [17]) [%] | Distribution of radioactivity (Rattus norvegicus [18]) [% dose/g] | Distribution of radioactivity (Rattus norvegicus [19]) [% dose/g] | Distribution of radioactivity (Rattus norvegicus [20]) [% dose per organ] | Compound | other results
9.5 | 0.54 | 86.5 | 0.59 | 91.1 | 0.54 | 0.08 | 0.1 | 65.1 | 0.07 | 0.9 | 0.05 | 17.9 | 1.16 | 6.4 | 0.2 | 65.6 | 0.09 | 0.08 | 0.7 | CCCCCCCC/C=C/CCCCCCCC(=O)OC(COC(=O)CCCCc1c(I)cc(I)c(N)c1I)COC(=O)CCCCc1c(I)cc(I)c(N)c1I | Distribution of radioactivity (Rattus norvegicus [21]): 3.7 % dose per organ; Distribution of radioactivity (Rattus norvegicus [22]): 1.4 % dose/organ; Distribution of radioactivity (Rattus norvegicus [23]): 8 % dose/organ; Lipid-soluble radioactivity (Rattus norvegicus [24]): 88.8; Distribution of radioactivity (Rattus norvegicus [25]): 0.14 % dose/g; Radioactivity (Rattus norvegicus [26]): 20.7%; Radioactivity (Rattus norvegicus [27]): 8.1%; Distribution of radioactivity (Rattus norvegicus [28]): 26.8 % dose/organ; Distribution of radioactivity (Rattus norvegicus [29]): 6.94 % dose/g; Distribution of radioactivity (Rattus norvegicus [30]): 0.59 % dose/g; Distribution of radioactivity (Rattus norvegicus [31]): 14.5 % dose/g; Radioactivity (Rattus norvegicus [32]): 0.1%; Lipid-soluble radioactivity (Rattus norvegicus [33]): 54.5; Lipid-soluble radioactivity (Rattus norvegicus [34]): 42.3; Distribution of radioactivity (Rattus norvegicus [35]): 0.09 % dose/g
14.4 | 2.88 | 64.7 | 0.84 | 97.5 | 0.34 | 0.02 | 0.42 | 78 | 0.06 | 0.3 | 0.07 | 24.8 | 5.08 | 12.5 | 0.05 | 83.5 | 0.25 | 0.26 | 0.1 | CCCCCCCC/C=C/CCCCCCCC(=O)OC(COC(=O)C(CC)Cc1c(I)cc(I)c(N)c1I)COC(=O)C(CC)Cc1c(I)cc(I)c(N)c1I (stereo not given) | Distribution of radioactivity (Rattus norvegicus [21]): 9.8 % dose per organ; Distribution of radioactivity (Rattus norvegicus [22]): 0.1 % dose/organ; Distribution of radioactivity (Rattus norvegicus [23]): 11.3 % dose/organ; Lipid-soluble radioactivity (Rattus norvegicus [24]): 93.7; Distribution of radioactivity (Rattus norvegicus [25]): 0.01 % dose/g; Radioactivity (Rattus norvegicus [26]): 4.9%; Radioactivity (Rattus norvegicus [27]): 7.4%; Distribution of radioactivity (Rattus norvegicus [28]): 71.6 % dose/organ; Distribution of radioactivity (Rattus norvegicus [29]): 9 % dose/g; Distribution of radioactivity (Rattus norvegicus [30]): 0.62 % dose/g; Distribution of radioactivity (Rattus norvegicus [31]): 17.7 % dose/g; Radioactivity (Rattus norvegicus [32]): 1.5%; Lipid-soluble radioactivity (Rattus norvegicus [33]): 83; Lipid-soluble radioactivity (Rattus norvegicus [34]): 26.5; Distribution of radioactivity (Rattus norvegicus [35]): 0.03 % dose/g

— ChEMBL document CHEMBL1128242, “Polyiodinated triglyceride analogs as potential computed tomography imaging agents for the liver” (J Med Chem, 1995)
